The text below walks through data of patent US12545685B2 (Daiichi Sankyo Company, Limited, priority 2011, dated 2026).

The structures appear in SMILES notation. Some results are limits rather than exact numbers.

For assay [1], the target named is T1, Mdm2/p53 binding (GST-Mdm2 / His-p53) (Homo sapiens, UniProt Q00987, L33E).
T1 construct: Mdm2 partial protein having Mdm2 amino acids at positions 25 to 108
Description: Mdm2/p53 binding assay (HTRF, His-p53 and GST-Mdm2). Particulars: His-p53 (aa 1-132) and GST-Mdm2 (aa 25-108, L33E) 6.25 nM each; 25°C, 1 hour; values given as ranges. Summed up:
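Binding was detected by HTRF (ex 320 nm, em 620/665 nm) after 1 h at 25 °C, using Eu-cryptate anti-GST and XL665 anti-His antibodies. The protein pair was GST-Mdm2 (residues 25–108, L33E) with His-p53 (residues 1–132), each 6.25 nM in the protein dilution. T/C used no-compound control and no-p53 background, and IC50 came from sigmoid fitting.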
A general note: In TR-FRET formats the signal depends on donor and acceptor labels being close together.

Assay [2] concerns human lung cancer-derived cell line NCI-H460 having wild-type p53. Description: Cell growth inhibition assay (MTT). The assay is classed as cell-based. Particulars: 72 h, NCI-H460 cells, 3 days culture, values given as ranges, read-out: 50% growth inhibition concentration (GI50 value). How it is done: A cell growth inhibition assay was conducted using a human lung cancer-derived cell line NCI-H460 having wild-type p53.
NCI-H460 cells were suspended in a medium (RPMI1640 medium containing 10% fetal bovine serum) and the suspension was added in an amount of 500 cells/150 μl/well to a 96-well plate. A test compound was dissolved in DMSO and this solution was diluted with medium to prepare a sample solution (DMSO concentration: 1% or lower). On the next day, medium nonsupplemented with the test compound, or the sample solution, was added in an amount of 50 μl/well. Cells were then cultured at 37° ° C. for 3 days in a 5% CO2 atmosphere.
An MTT assay was conducted immediately after the nonsupplemented medium or the sample solution was added. Another MTT assay was conducted after culturing the cells for 3 days. The MIT assays were conducted as shown below.
A 5 mg/ml MTT (3-(4,5-dimethylthiazol-2-yl)-2,5-diphenyltetrazolium bromide, Sigma-Aldrich Co., M-2128) solution was prepared using a phosphate buffer solution (Dulbecco's Phosphate-buffered Saline). This MIT solution was added in an amount of 20 μl/well. Then the plate was cultured at 37° ° C. for 4 hours in a 5% CO2 atmosphere. The plate was centrifuged at 1200 rpm for 5 minutes and then the culture supernatant was removed by aspiration using a dispenser. DMSO was added in an amount of 150 μl/well to dissolve generated formazan. The plate was stirred using a plate mixer for uniform color development from each well. The absorbance of each well was measured at OD 540 nm and at a reference OD (660 nm) using a plate reader (SpectraMax PLUS384, Molecular Devices, CA, USA).
The OD value measured on the day of adding the sample solution was defined as S. The OD value measured three days after addition of the sample solution was defined as T. The OD value measured three days after addition of the DMSO dilution was defined as C. T/C (%) was determined at each concentration according to the formula shown below in order to prepare a dose response curve, from which 50% growth inhibition concentration (GI50 value) was calculated.

T1 sequence (Q00987 25-108 L33E): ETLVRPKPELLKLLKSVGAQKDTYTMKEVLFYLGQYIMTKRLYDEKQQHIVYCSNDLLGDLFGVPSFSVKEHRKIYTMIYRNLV

Usually IC50 stands for the midpoint of a concentration-inhibition curve. Lower therefore signals higher potency. As to `CC1(C)CCC2(CC1)N[C@@H](C(=O)N[C@@H]1CC[C@@H](CO)OC1)[C@H](c1cc(Cl)cc(CO)c1)[C@]21C(=O)Nc2cc(Cl)ccc21` [Example 28, (3′R, 4′R, 5′R)-6″-chloro-4′-[3-chloro-5-(hydroxymethyl)phenyl]-N-[(3R,6S)-6-(hydroxymethyl)tetrahydro-2H-pyran-3-yl]-4,4-dimethyl-2″-oxo-1″,2″-dihydrodispiro[cyclohexane-1,2′-pyrrolidine-3′,3″-indole]-5′-carboxamide], in assay [1], the half-maximal inhibitory concentration (IC50) lay within 1 to 50 nM. Further, in assay [2], the GI50 was 1000 to 5000 nM.

As for `CC1(C)CCC2(CC1)N[C@@H](C(=O)N[C@H]1CO[C@H](CO)[C@@H](O)C1)[C@H](c1ccnc(Cl)c1F)[C@]21C(=O)Nc2cc(Cl)ccc21` [Example 29], the IC50 in assay [1] is 1 to 50 nM. In assay [2], the GI50 was in the range of 1000 to 5000 nM.

In turn, `CC1(C)CCC2(CC1)N[C@@H](C(=O)N[C@H]1CO[C@H](CO)[C@@H](O)C1)[C@H](c1cccc(Cl)c1F)[C@]21C(=O)Nc2nc(Cl)ccc21` [Example 30, (3′R, 4′S,5′R)-6″-chloro-4′-(3-chloro-2-fluorophenyl)-N-[(3R,5S,6R)-5-hydroxy-6-(hydroxymethyl)tetrahydro-2H-pyran-3-yl]-4,4-dimethyl-2″-oxo-1″,2″-dihydrodispiro[cyclohexane-1,2′-pyrrolidine-3′,3″-pyrrolo[2,3-b]pyridine]-5′-carboxamide] showed an IC50 in assay [1] of 1 to 50 nM. For the same compound, the GI50 in assay [2] lay in the range of 1000 to 5000 nM.

As for `CC1(C)CCC2(CC1)N[C@@H](C(=O)N[C@@H]1CC[C@@H](c3nnco3)OC1)[C@H](c1ccnc(Cl)c1F)[C@]21C(=O)Nc2cc(Cl)ccc21` [Example 34, (3′R, 4′S,5′R)-6″-chloro-4′-(2-chloro-3-fluoropyridin-4-yl)-4,4-dimethyl-N-[(3R,6S)-6-(1,3,4-oxadiazol-2-yl)tetrahydro-2H-pyran-3-yl]-2″-oxo-1″,2″-dihydrodispiro[cyclohexane-1,2′-pyrrolidine-3′,3″-indole]-5′-carboxamide], the IC50 in assay [1] was 1 to 50 nM. In addition, the GI50 in assay [2] lay within 100 to 500 nM.

Turning to `CC1(C)CCC2(CC1)N[C@@H](C(=O)N[C@H]1CC[C@H](c3n[nH]c(=O)o3)CC1)[C@H](c1ccnc(Cl)c1F)[C@]21C(=O)Nc2cc(Cl)ccc21` [Example 35, (3′R, 4′S, S′R)-6″-chloro-4′-(2-chloro-3-fluoropyridin-4-yl)-4,4-dimethyl-2″-oxo-N-[trans-4-(5-oxo-4,5-dihydro-1,3,4-oxadiazol-2-yl)cyclohexyl]-1″,2″-dihydrodispiro[cyclohexane-1,2′-pyrrolidine-3′,3″-indole]-5′-carboxamide], the IC50 in assay [1] fell in the range of 50 to 100 nM. In addition, the GI50 in assay [2] is below 100 nM.

Compound `O=C(N[C@@H]1CC[C@@H](CO)OC1)[C@@H]1NC2(CC(CF)(CF)C2)[C@@]2(C(=O)Nc3cc(Cl)ccc32)[C@H]1c1cccc(Cl)c1F` [Example 38, (3′R, 4′S,5′R)-6″-chloro-4′-(3-chloro-2-fluorophenyl)-3,3-bis(fluoromethyl)-N-[(3R,6S)-6-(hydroxymethyl)tetrahydro-2H-pyran-3-yl]-2″-oxo-1″,2″-dihydrodispiro [cyclobutane-1,2′-pyrrolidine-3′,3″-indole]-5′-carboxamide] gave an IC50 in assay [1] of 1 to 50 nM. The GI50 in assay [2] is 100 to 500 nM.

Turning to `CC1(C)CCC2(CC1)N[C@@H](C(=O)N[C@H]1CC[C@@](O)(CO)CC1)[C@H](c1ccnc(Cl)c1F)[C@]21C(=O)Nc2cc(Cl)ccc21` [Example 40, (3′R, 4′S,5R)-6″-chloro-4′-(2-chloro-3-fluoropyridin-4-yl)-N-[trans-4-hydroxy-4-(hydroxymethyl)cyclohexyl]-4,4-dimethyl-2″-oxo-1″,2″-dihydrodispiro[cyclohexane-1,2′-pyrrolidine-3′,3″-indole]-5′-carboxamide], the IC50 in assay [1] lay in the range of 1 to 50 nM. For the same compound, in assay [2], the GI50 lay within 500 to 1000 nM.

Compound `CC1(C)CCC2(CC1)N[C@@H](C(=O)N[C@@H]1CC[C@@H](C(C)(C)O)OC1)[C@H](c1ccnc(Cl)c1F)[C@]21C(=O)Nc2nc(Cl)ccc21` [Example 47, (3′R, 4′S,5′R)-6″-chloro-4′-(2-chloro-3-fluoropyridin-4-yl)-N-[(3R,6S)-6-(1-hydroxy-1-methylethyl)tetrahydro-2H-pyran-3-yl]-4,4-dimethyl-2″-oxo-1″,2″-dihydrodispiro[cyclohexane-1,2′-pyrrolidine-3′,3″-pyrrolo[2,3-b]pyridine]-5′-carboxamide] gave an IC50 in assay [1] of 50 to 100 nM. Further, the GI50 in assay [2] lay within 500 to 1000 nM.

In assay [1], `CC1(C)CCC2(CC1)N[C@@H](C(=O)N[C@H]1CC[C@H](c3n[nH]c(=O)o3)CC1)[C@H](c1ccnc(Cl)c1)[C@]21C(=O)Nc2cc(Cl)ccc21` [Example 51, (3′R, 4′R, 5′R)-6″-chloro-4′=(2-chloropyridin-4-yl)-4,4-dimethyl-2″-oxo-N-[trans-4-(5-oxo-4,5-dihydro-1,3,4-oxadiazol-2-yl)cyclohexyl]-1″,2″-dihydrodispiro[cyclohexane-1,2′-pyrrolidine-3′,3″-indole]-5′-carboxamide] registered an IC50 of 50 to 100 nM. In addition, the GI50 in assay [2] is 100 to 500 nM.

`CC1(C)CCC2(CC1)N[C@@H](C(=O)N[C@@H]1CC[C@@H](c3nnco3)OC1)[C@H](c1ccnc(Cl)c1)[C@]21C(=O)Nc2cc(Cl)ccc21` [Example 53, (3′R, 4′R, 5′R)-6″-chloro-4′-(2-chloropyridin-4-yl)-4,4-dimethyl-N-[(3R,6S)-6-(1,3,4-oxadiazol-2-yl)tetrahydro-2-pyran-3-yl]-2″-oxo-1″,2″-dihydrodispiro[cyclohexane-1,2′-pyrrolidine-3′,3″-indole]-5′-carboxamide] registered a 50% inhibitory concentration (IC50) in assay [1] of 1 to 50 nM. Moreover, the GI50 in assay [2] was in the range of 500 to 1000 nM.

On to `CC1(C)CCC2(CC1)N[C@@H](C(=O)N[C@H]1CC[C@H](c3nnco3)CC1)[C@H](c1ccnc(Cl)c1)[C@]21C(=O)Nc2cc(Cl)ccc21` [Example 54, (3′R, 4′R, 5′R)-6″-chloro-4′-(2-chloropyridin-4-yl)-4,4-dimethyl-N-[trans-4-(1,3,4-oxadiazol-2-yl)cyclohexyl]-2″-oxo-1″,2″-dihydrodispiro[cyclohexane-1,2′-pyrrolidine-3′,3″-indole]-5′-carboxamide], for which, in assay [1], the half-maximal inhibitory concentration (IC50) was 50 to 100 nM. Also, the GI50 in assay [2] lay within 500 to 1000 nM.

In assay [1], `CC1(C)CCC2(CC1)N[C@@H](C(=O)N[C@@H]1CC[C@@H](c3n[nH]c(=O)o3)OC1)[C@H](c1ccnc(Cl)c1F)[C@]21C(=O)Nc2cc(Cl)ccc21` [Example 57, (3′R, 4′S,5′R)-6″-chloro-4′-(2-chloro-3-fluoropyridin-4-yl)-4,4-dimethyl-2″-oxo-N-[(3R,6S)-6-(5-oxo-4,5-dihydro-1,3,4-oxadiazol-2-yl)tetrahydro-2H-pyran-3-yl]-1″,2″-dihydrodispiro[cyclohexane-1,2′-pyrrolidine-3′,3″-indole]-5′-carboxamide] displayed a half-maximal inhibitory concentration (IC50) of 1 to 50 nM. Further, the GI50 in assay [2] fell in the range of 100 to 500 nM.

Compound `CC1(C)CCC2(CC1)N[C@@H](C(=O)N[C@H]1CC[C@H](C(N)=O)CC1)[C@H](c1ccnc(Cl)c1F)[C@]21C(=O)Nc2cc(Cl)ccc21` [Example 67, (3′R, 4′S,5′R)—N-(trans-4-carbamoylcyclohexyl)-6″-chloro-4′-(2-chloro-3-fluoropyridin-4-yl)-4,4-dimethyl-2′-oxo-1″,2″-dihydrodispiro[cyclohexane-1,2′-pyrrolidine-3′,3″-indole]-5′-carboxamide] showed a half-inhibitory concentration (IC50) in assay [1] of 1 to 50 nM. Also, the GI50 in assay [2] lay in the range of 100 to 500 nM.
